Reference: PubChem BioAssay AID2060893 (Molecular Pharmacology Branch, DTP, NCI, 2025)

System: K86415-001-R-J1-PDC complex spheroids, viability
Experiment: Anticancer human tumor K86415-001-R-J1-PDC patient-derived lung adenocarcinoma cell line growth inhibition [RAS]
Details: for IC50: curve of first compound; for viability, T/C: stronger effect = lower value; active means viability on the fitted dose curve at most 10% of control; inactive means the rest
Procedure, shortened: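 Tumour cells grown as complex spheroids with HUVEC endothelial cells and mesenchymal stem cells, treated with RAS pathway inhibitor combinations. Each agent spans half-log steps from near clinical Cmax, or 10 microM where Cmax is unknown.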

[1] = second compound 0.00316 µM, first compound 0.0316 µM
[2] = second compound 0.00316 µM, first compound 0.1 µM
[3] = second compound 0.00316 µM, first compound 0.316 µM
[4] = second compound 0.00316 µM, first compound 1 µM
[5] = second compound 0.00316 µM, first compound 3.16 µM
[6] = second compound 0.00316 µM, first compound 10 µM
[7] = second compound 0.01 µM, first compound 0.0316 µM
[8] = second compound 0.01 µM, first compound 0.1 µM
[9] = second compound 0.01 µM, first compound 0.316 µM
[10] = second compound 0.01 µM, first compound 1 µM
[11] = second compound 0.01 µM, first compound 3.16 µM
[12] = second compound 0.01 µM, first compound 10 µM
[13] = second compound 0.0316 µM, first compound 0.0316 µM
[14] = second compound 0.0316 µM, first compound 0.1 µM
[15] = second compound 0.0316 µM, first compound 0.316 µM
[16] = second compound 0.0316 µM, first compound 1 µM
[17] = second compound 0.0316 µM, first compound 3.16 µM
[18] = second compound 0.0316 µM, first compound 10 µM
[19] = second compound 0.1 µM, first compound 0.0316 µM
[20] = second compound 0.1 µM, first compound 0.1 µM
[21] = second compound 0.1 µM, first compound 0.316 µM
[22] = second compound 0.1 µM, first compound 1 µM
[23] = second compound 0.1 µM, first compound 3.16 µM
[24] = second compound 0.1 µM, first compound 10 µM
[25] = second compound 0.316 µM, first compound 0.0316 µM
[26] = second compound 0.316 µM, first compound 0.1 µM
[27] = second compound 0.316 µM, first compound 0.316 µM
[28] = second compound 0.316 µM, first compound 1 µM
[29] = second compound 0.316 µM, first compound 3.16 µM
[30] = second compound 0.316 µM, first compound 10 µM
[31] = second compound 1 µM, first compound 0.0316 µM
[32] = second compound 1 µM, first compound 0.1 µM
[33] = second compound 1 µM, first compound 0.316 µM
[34] = second compound 1 µM, first compound 1 µM
[35] = second compound 1 µM, first compound 3.16 µM
[36] = second compound 1 µM, first compound 10 µM
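Further: spheroids exposed to agents for seven days before readout.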

CC(C)n1nc(-c2ccc3oc(N)nc3c2)c2c(N)ncnc21 + CCn1c(-c2cccnc2C(C)OC)c2c3cc(ccc31)N1CCOC(CC(NC(=O)C(C(C)C)N(C)C(=O)C3(F)CCN(C(=O)C#CC(C)(C)N(C)C)CC3)C(=O)N3CCCC(N3)C(=O)OCC(C)(C)C2)C1
< 0.316 nM: IC50 (second compound 0.000949 µM) | IC50 (second compound 0.003 µM) | IC50 (second compound 0.00949 µM) | IC50 (second compound 0.03 µM) | IC50 (second compound 0.0949 µM) | IC50 (second compound 0.3 µM)
inactive: viability, T/C (second compound 0.000949 µM, first compound 0.000316 µM) 34% | viability, T/C (second compound 0.000949 µM, first compound 0.001 µM) 35.4% | viability, T/C (second compound 0.000949 µM, first compound 0.00316 µM) 23.2% | viability, T/C (second compound 0.000949 µM, first compound 0.01 µM) 41.4% | viability, T/C (second compound 0.000949 µM, first compound 0.0316 µM) 24.4% | viability, T/C (second compound 0.000949 µM, first compound 0.1 µM) 5.51% | viability, T/C (second compound 0.003 µM, first compound 0.000316 µM) 13% | viability, T/C (second compound 0.003 µM, first compound 0.001 µM) 12.1% | viability, T/C (second compound 0.003 µM, first compound 0.00316 µM) 10.7% | viability, T/C (second compound 0.00949 µM, first compound 0.000316 µM) 13.2% | viability, T/C (second compound 0.00949 µM, first compound 0.001 µM) 9.19% | viability, T/C (second compound 0.00949 µM, first compound 0.00316 µM) 10.9% | viability, T/C (second compound 0.03 µM, first compound 0.000316 µM) 12.8% | viability, T/C (second compound 0.03 µM, first compound 0.001 µM) 10.7% | viability, T/C (second compound 0.03 µM, first compound 0.00316 µM) 11.1% | viability, T/C (second compound 0.0949 µM, first compound 0.000316 µM) 10.1% | viability, T/C (second compound 0.0949 µM, first compound 0.001 µM) 11% | viability, T/C (second compound 0.3 µM, first compound 0.000316 µM) 14.4% | viability, T/C (second compound 0.3 µM, first compound 0.001 µM) 11.3%
active: viability, T/C (second compound 0.003 µM, first compound 0.01 µM) 14.7% | viability, T/C (second compound 0.003 µM, first compound 0.0316 µM) 8.1% | viability, T/C (second compound 0.003 µM, first compound 0.1 µM) 3.6% | viability, T/C (second compound 0.00949 µM, first compound 0.01 µM) 13.8% | viability, T/C (second compound 0.00949 µM, first compound 0.0316 µM) 7.68% | viability, T/C (second compound 0.00949 µM, first compound 0.1 µM) 2.81% | viability, T/C (second compound 0.03 µM, first compound 0.01 µM) 12.4% | viability, T/C (second compound 0.03 µM, first compound 0.0316 µM) 5.85% | viability, T/C (second compound 0.03 µM, first compound 0.1 µM) 3.42% | viability, T/C (second compound 0.0949 µM, first compound 0.00316 µM) 10.1% | viability, T/C (second compound 0.0949 µM, first compound 0.01 µM) 12.7% | viability, T/C (second compound 0.0949 µM, first compound 0.0316 µM) 4.18% | viability, T/C (second compound 0.0949 µM, first compound 0.1 µM) 2.27% | viability, T/C (second compound 0.3 µM, first compound 0.00316 µM) 12.1% | viability, T/C (second compound 0.3 µM, first compound 0.01 µM) 7.79% | viability, T/C (second compound 0.3 µM, first compound 0.0316 µM) 4.23% | viability, T/C (second compound 0.3 µM, first compound 0.1 µM) 2.06%

CC(Nc1ccc2c(c1)OCCn1cc(N3C(=O)OCC3C(F)F)nc1-2)C(N)=O (stereo unspecified) + C=CC(=O)N1CCN(c2nc(OCC3CCCN3C)nc3c(F)c(-c4nc(N)cc(C)c4C(F)(F)F)c(Cl)cc23)C(C)C1
< 31.6 nM: IC50 (second compound 0.00316 µM) | IC50 (second compound 0.01 µM) | IC50 (second compound 0.0316 µM) | IC50 (second compound 0.1 µM) | IC50 (second compound 0.316 µM) | IC50 (second compound 1 µM)
inactive: viability, T/C [1] 12.4% | viability, T/C [2] 11% | viability, T/C [3] 9.71% | viability, T/C [7] 10.6%
active: viability, T/C [4] 13.9% | viability, T/C [5] 8.57% | viability, T/C [6] 4.65% | viability, T/C [8] 8.09% | viability, T/C [9] 7.67% | viability, T/C [10] 4.13% | viability, T/C [11] 2.86% | viability, T/C [12] 1.6% | viability, T/C [13] 8.44% | viability, T/C [14] 6.97% | viability, T/C [15] 5.95% | viability, T/C [16] 3.55% | viability, T/C [17] 2.24% | viability, T/C [18] 1.34% | viability, T/C [19] 8.36% | viability, T/C [20] 6.36% | viability, T/C [21] 3.79% | viability, T/C [22] 3.04% | viability, T/C [23] 1.94% | viability, T/C [24] 1.11% | viability, T/C [25] 8.27% | viability, T/C [26] 6.69% | viability, T/C [27] 4.1% | viability, T/C [28] 5.15% | viability, T/C [29] 2.4% | viability, T/C [30] 1.49% | viability, T/C [31] 7.44% | viability, T/C [32] 6.59% | viability, T/C [33] 4.3% | viability, T/C [34] 2.92% | viability, T/C [35] 2.11% | viability, T/C [36] 1.04%

CC(C)NCC(C(=O)N1CCN(c2ncnc3c2C(C)CC3O)CC1)c1ccc(Cl)cc1 (stereo unspecified) + C=CC(=O)N1CCN(c2nc(OCC3CCCN3C)nc3c(F)c(-c4nc(N)cc(C)c4C(F)(F)F)c(Cl)cc23)C(C)C1
< 31.6 nM: IC50 (second compound 0.00316 µM) | IC50 (second compound 0.01 µM) | IC50 (second compound 0.0316 µM) | IC50 (second compound 0.1 µM) | IC50 (second compound 0.316 µM) | IC50 (second compound 1 µM)
active: viability, T/C [9] 8.15% | viability, T/C [10] 7.26% | viability, T/C [11] 9.79% | viability, T/C [12] 5.61% | viability, T/C [14] 12.1% | viability, T/C [15] 6.32% | viability, T/C [16] 6.17% | viability, T/C [17] 6.03% | viability, T/C [18] 3.62% | viability, T/C [21] 7.67% | viability, T/C [22] 4.58% | viability, T/C [23] 6.35% | viability, T/C [24] 2.96% | viability, T/C [26] 8.49% | viability, T/C [27] 6.58% | viability, T/C [28] 5.42% | viability, T/C [29] 7.11% | viability, T/C [30] 4.04% | viability, T/C [32] 10.8% | viability, T/C [33] 7.39% | viability, T/C [34] 6.41% | viability, T/C [35] 5.23% | viability, T/C [36] 3.49%
inactive: viability, T/C [1] 15.9% | viability, T/C [2] 17.9% | viability, T/C [3] 13.7% | viability, T/C [4] 11.4% | viability, T/C [5] 22.4% | viability, T/C [6] 18.6% | viability, T/C [7] 13.2% | viability, T/C [8] 14.1% | viability, T/C [13] 11.2% | viability, T/C [19] 17.1% | viability, T/C [20] 9.65% | viability, T/C [25] 12.1% | viability, T/C [31] 9.4%
